In the supplement of paper PMC10307832:

What was measured:
Experiment in all cases: relative viability (nuclei count vs DMSO), 5 days (fraction); higher = more cells survive
Vemurafenib + Navitoclax = compound: CCCS(=O)(=O)Nc1ccc(F)c(C(=O)c2c[nH]c3ncc(-c4ccc(Cl)cc4)cc23)c1F [Vemurafenib] + CC1(C)CCC(c2ccc(Cl)cc2)=C(CN2CCN(c3ccc(C(=O)NS(=O)(=O)c4ccc(N[C@H](CCN5CCOCC5)CSc5ccccc5)c(S(=O)(=O)C(F)(F)F)c4)cc3)CC2)C1 [Navitoclax] (partner 0.5 µM)
How it was run: (§1)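 Lung cancer cell lines in 1536-well plates were dosed by pin tool the day after seeding, either with one drug alone or with a fixed anchor-drug dose plus five library-drug doses (not always all listed) in √10 steps. After 5 days, cells were fixed and their nuclei stained in one step (final 0.05% Triton X-100, 1% formaldehyde, 1 ug/ml Hoechst), then counted on 4× images. Relative viability is the nuclei count in treated wells divided by that in vehicle wells. Values are medians of duplicate plates.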

OSI-027 + Decitabine = compound: COc1cccc2cc(-c3nc([C@H]4CC[C@H](C(=O)O)CC4)n4ncnc(N)c34)[nH]c12 [OSI-027] + Nc1ncn([C@H]2C[C@H](O)[C@@H](CO)O2)c(=O)n1 [Decitabine] (partner 2 µM)
How it was run: as §1

Alpelisib + Bortezomib = compound: Cc1nc(NC(=O)N2CCC[C@H]2C(N)=O)sc1-c1ccnc(C(C)(C)C(F)(F)F)c1 [Alpelisib] + CC(C)C[C@H](NC(=O)[C@H](Cc1ccccc1)NC(=O)c1cnccn1)B(O)O [Bortezomib] (partner 0.002 µM)
How it was run: as §1

Alpelisib + Vorinostat = compound: Cc1nc(NC(=O)N2CCC[C@H]2C(N)=O)sc1-c1ccnc(C(C)(C)C(F)(F)F)c1 [Alpelisib] + O=C(CCCCCCC(=O)Nc1ccccc1)NO [Vorinostat] (partner 1 µM)
How it was run: as §1

Cell Line	relative viability (Vemurafenib + Navitoclax; first compound 0.03162 µM)	relative viability (Vemurafenib + Navitoclax; first compound 0.1 µM)	relative viability (Vemurafenib + Navitoclax; first compound 0.3162 µM)	relative viability (Vemurafenib + Navitoclax; first compound 1 µM)	relative viability (OSI-027 + Decitabine; first compound 0.01 µM)	relative viability (OSI-027 + Decitabine; first compound 0.03162 µM)	relative viability (OSI-027 + Decitabine; first compound 0.1 µM)	relative viability (OSI-027 + Decitabine; first compound 0.3162 µM)	relative viability (OSI-027 + Decitabine; first compound 1 µM)	relative viability (Alpelisib + Bortezomib; first compound 0.04 µM)	relative viability (Alpelisib + Bortezomib; first compound 0.1265 µM)	relative viability (Alpelisib + Bortezomib; first compound 0.4 µM)	relative viability (Alpelisib + Bortezomib; first compound 1.265 µM)	relative viability (Alpelisib + Bortezomib; first compound 4 µM)	relative viability (Alpelisib + Vorinostat; first compound 0.04 µM)	relative viability (Alpelisib + Vorinostat; first compound 0.1265 µM)	relative viability (Alpelisib + Vorinostat; first compound 0.4 µM)	relative viability (Alpelisib + Vorinostat; first compound 1.265 µM)	relative viability (Alpelisib + Vorinostat; first compound 4 µM)
SK-LU-1	0.914	0.74	0.751	0.564	0.594	0.631	0.663	0.483	0.406	1.36	0.723	1.01	0.805	0.934	0.817	0.775	0.847	0.676	0.689
SW 1573	0.927	1.12	1.09	0.934	0.411	0.535	0.438	0.388	0.284	0.898	0.947	1	0.72	0.651	0.833	0.684	0.678	0.388	0.584
